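Grown in 96-well plates, cells were treated for 48 hours with each compound at five concentrations. Insufficient inhibition: endpoint recorded as highest concentration tested. TGI: concentration producing complete growth inhibition.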
Columns and labels:
Assay in all cases: NCI anticancer screen, dose series, 48 h
[1] = test system: ACHN renal
[2] = test system: CCRF-CEM leukemia
[3] = test system: COLO 205 colon
[4] = test system: HCT-116 colon
[5] = test system: HS 578T breast
[6] = test system: HT29 colon
[7] = test system: K-562 leukemia
[8] = test system: M14 melanoma
[9] = test system: MDA-MB-231 breast
[10] = test system: MOLT-4 leukemia
[11] = test system: NCI-H460 lung
[12] = test system: NCI-H522 lung
[13] = test system: OVCAR-4 ovarian
[14] = test system: OVCAR-5 ovarian
[15] = test system: RPMI-8226 leukemia
[16] = test system: RXF 393 renal
[17] = test system: SK-MEL-5 melanoma
[18] = test system: SN12C renal
[19] = test system: SF-295 CNS

SMILES: OCCN1CN(c2nc(N3CN(CCO)C3)nc(N3CN(CCO)C3)n2)C1
- TGI [1]: 95.3 µM
- TGI [2]: 50.6 µM
- TGI [3]: 59.2 µM
- TGI [4]: 42 µM
- TGI [5]: 66.7 µM
- TGI [6]: 71.4 µM
- TGI [7]: 87.3 µM
- TGI [8]: 34.3 µM
- TGI [9]: 36.6 µM
- TGI [10]: > 100 µM
- TGI [11]: 36.1 µM
- TGI [12]: 30 µM
- TGI [13]: 85.6 µM
- TGI [14]: 60.2 µM
- TGI [15]: > 100 µM
- TGI [16]: 44.8 µM
- TGI [17]: 33.4 µM
- TGI [18]: 39.5 µM

SMILES: O=S(=O)(O)c1ccc2c(N=Nc3ccccc3)c(O)c(S(=O)(=O)O)cc2c1
- TGI [1]: > 100 µM
- TGI [2]: > 100 µM
- TGI [3]: > 100 µM
- TGI [4]: > 100 µM
- TGI [5]: > 100 µM
- TGI [7]: > 100 µM
- TGI [8]: > 100 µM
- TGI [9]: > 100 µM
- TGI [10]: > 100 µM
- TGI [11]: > 100 µM
- TGI [12]: > 100 µM
- TGI [13]: > 100 µM
- TGI [14]: > 100 µM
- TGI [16]: > 100 µM
- TGI [19]: > 100 µM
- TGI [17]: > 100 µM
- TGI [18]: > 100 µM

SMILES: [N-]=[N+]=NC1=NNC2(C(=O)N1)c1ccccc1-c1ccccc12
- TGI [1]: > 100 µM
- TGI [2]: > 100 µM
- TGI [3]: > 100 µM
- TGI [4]: 27.4 µM
- TGI [5]: > 100 µM
- TGI [6]: > 100 µM
- TGI [7]: > 100 µM
- TGI [8]: > 100 µM
- TGI [9]: > 100 µM
- TGI [11]: > 100 µM
- TGI [12]: > 100 µM
- TGI [13]: > 100 µM
- TGI [14]: > 100 µM
- TGI [16]: > 100 µM
- TGI [19]: > 100 µM
- TGI [17]: > 100 µM
- TGI [18]: > 100 µM

SMILES: CC1(C)C2CCC1(C)C(N/C(=C(/C(Cl)=C(Cl)Cl)[N+](=O)[O-])n1nnc3ccccc31)C2 (centres undefined)
- TGI [1]: 42.1 µM
- TGI [2]: > 100 µM
- TGI [3]: 34.4 µM
- TGI [4]: > 100 µM
- TGI [5]: 43.6 µM
- TGI [6]: > 100 µM
- TGI [8]: > 100 µM
- TGI [9]: 53.7 µM
- TGI [11]: > 100 µM
- TGI [13]: 60.7 µM
- TGI [14]: > 100 µM
- TGI [15]: > 100 µM
- TGI [16]: 36.5 µM
- TGI [19]: 52.3 µM
- TGI [18]: > 100 µM

SMILES: CC1=NC2(CCCCC2)N(Cl)C(=O)C1SC#N (centres undefined)
- TGI [1]: 31.6 µM
- TGI [2]: 12.8 µM
- TGI [3]: > 100 µM
- TGI [5]: > 100 µM
- TGI [6]: 46.4 µM
- TGI [7]: 41.4 µM
- TGI [8]: 34.4 µM
- TGI [9]: 36.5 µM
- TGI [10]: 23.7 µM
- TGI [12]: 38.8 µM
- TGI [13]: 46.2 µM
- TGI [14]: 38.6 µM
- TGI [16]: 32.3 µM
- TGI [19]: 36.1 µM
- TGI [17]: 39.8 µM
- TGI [18]: 36.5 µM

SMILES: CC(/C=N/N(C)C1=NCCCCN1)=N/N(C)C1=NCCCCN1
- TGI [1]: > 100 µM
- TGI [2]: > 100 µM
- TGI [3]: > 100 µM
- TGI [4]: > 100 µM
- TGI [5]: > 100 µM
- TGI [6]: > 100 µM
- TGI [7]: > 100 µM
- TGI [9]: > 100 µM
- TGI [10]: > 100 µM
- TGI [11]: > 100 µM
- TGI [12]: > 100 µM
- TGI [13]: > 100 µM
- TGI [14]: > 100 µM
- TGI [15]: > 100 µM
- TGI [16]: > 100 µM
- TGI [19]: > 100 µM
- TGI [17]: > 100 µM
- TGI [18]: > 100 µM

SMILES: OC12C3C4CC5C(C4[C@@H]1Br)C2[C@@](O)(c1c(F)c(F)c(F)c(F)c1F)C53 (some centres undefined)
- TGI [1]: > 100 µM
- TGI [2]: > 100 µM
- TGI [3]: > 100 µM
- TGI [4]: > 100 µM
- TGI [5]: 97.5 µM
- TGI [6]: > 100 µM
- TGI [7]: 61.5 µM
- TGI [8]: > 100 µM
- TGI [9]: > 100 µM
- TGI [10]: > 100 µM
- TGI [11]: > 100 µM
- TGI [12]: > 100 µM
- TGI [13]: > 100 µM
- TGI [14]: > 100 µM
- TGI [16]: 94.3 µM
- TGI [19]: 76.8 µM
- TGI [17]: 59.3 µM
- TGI [18]: > 100 µM
